From US20250129096A1, “ANNULATED 2-AMINO-3-CYANO THIOPHENES AND DERIVATIVES FOR THE TREATMENT OF CANCER” (Boehringer Ingelheim Int'l GmbH Corp., priority 2021, published 2025)

Tests used:
CYP3A4 = target: T1, CYP3A4 (Homo sapiens, UniProt P08684); test: Mechanism based inhibition of CYP3A4 assay (MBI 3A4); assay type: in vitro ADME; details: 25 uM, hydroxy-midazolam formation after 30 min preincubation relative to 0 min, human liver microsomes
T1 construct: assayed in human liver microsomes (0.02 mg/mL) with midazolam (15 μM) as a substrate; from tissue; host or cells: human liver microsomes
T1 sequence (P08684 whole entry): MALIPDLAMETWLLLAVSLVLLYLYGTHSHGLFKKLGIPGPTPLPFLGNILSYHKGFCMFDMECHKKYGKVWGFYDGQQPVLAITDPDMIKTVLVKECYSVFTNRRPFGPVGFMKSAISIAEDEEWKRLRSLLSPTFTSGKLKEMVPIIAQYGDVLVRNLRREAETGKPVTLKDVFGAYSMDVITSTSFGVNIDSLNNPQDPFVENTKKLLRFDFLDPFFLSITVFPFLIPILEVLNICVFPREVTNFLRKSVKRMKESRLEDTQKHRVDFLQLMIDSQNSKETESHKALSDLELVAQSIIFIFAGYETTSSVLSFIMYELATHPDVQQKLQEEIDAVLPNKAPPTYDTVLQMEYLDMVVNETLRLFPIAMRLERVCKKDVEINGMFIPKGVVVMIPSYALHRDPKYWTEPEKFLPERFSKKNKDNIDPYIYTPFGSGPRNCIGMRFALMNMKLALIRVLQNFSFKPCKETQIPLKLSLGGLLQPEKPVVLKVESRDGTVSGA
Protocol: After preincubation, the incubate is diluted 1:10 and the substrate midazolam is added for the main incubation (15 min). The main incubation is quenched with acetonitrile and the formation of hydroxy-midazolam is quantified via LC/MS-MS. The formation of hydroxy-midazolam from the 30 min preincubation relative to the formation from the 0 min preincubation is used as a readout. Values of less than 100% mean that the substrate midazolam is metabolized to a lower extent upon 30 min preincubation compared to 0 min preincubation. In general low effects upon 30 min preincubation are desired (corresponding to values close to 100%/not different to the values determined with water control).

[1] = test system: NCI-H358 cells (NSCLC, G12C); test: NCI-H358 CTG proliferation assay (120 h), assay 1; assay type: cell-based; details: Homo sapiens, CellTiter-Glo, 96 well, 2000 cells per well
Protocol: NCI-1H358 cells (ATCC No. CRL-5807) are dispensed into white bottom opaque 96 well plates (Perkin Elmer cat no. 5680) at a density of 2000 cells per well in 100 μL RPM 1-1640 ATCC-Formulation (Gibco #A10491)+10% FCS (fetal calf serum) (assay 1) or into black 384-well plates, flat and clear bottom (Greiner, PNr. 781091) at a density of 200 cells per well in 60 μl RPMI-1640 ATCC-Formulation (Gibco #A10491)+10% FCS (fetal calf serum) (assay 2). […] Compounds (10 mM stock in DMSO) are added at logarithmic dose series using the HP Digital Dispenser D300 (Tecan) (assay 1) or the ECHO acoustic liquid handler system (Beckman Coulter) (assay 2), normalizing for added DMSO and including DMSO controls. For the TO time point measurement, untreated cells are analyzed at the time of compound addition. Plates are incubated for 120 h, and cell viability is measured using CellTiter-Glo luminescent cell viability reagent (Promega product code G7570). Viability (stated as percent of control) is defined as relative luminescence units RLU of each well divided by the RLU of cells in DMSO controls. IC50 values are determined from viability measurements by non-linear regression using a four-parameter model.

[2] = test system: MKN1 cells (gastric cancer, wt amplified); test: MKN1 CTG proliferation assay (120 h), assay 1; assay type: cell-based; details: Homo sapiens, MKN-1, CellTiter-Glo, 400 cells per well
Protocol: (§1) MKN1 cells (JCRB0252) are dispensed into white 384-well plates, flat and white bottom (Corning Costar, PNr.: 3570) at a density of 400 cells per well in 50 μL RPMI 1640 (PAN-Biotech, PNr.: P04-18047)+10% FCS (HyClone, PNr.: SH30084.03) (assay 1) or into black 384-well plates, flat and clear bottom (Greiner, PNr. 781091) at a density of 200 cells per well in 60 μl RPMI-1640 (Gibco #A10491)+10% FCS (HyClone, PNr.: SH30084.03)+ PenStrep (Gibco, PNr. 15140-122) (assay 2). […] Compounds (10 mM stock in DMSO) are added at logarithmic dose series using the HP Digital Dispenser D300 (Tecan) (assay 1+2) or the ECHO acoustic liquid handler system (Beckman Coulter) (assay 3), including DMSO controls and normalizing for added DMSO. Plates are incubated for 120 h, and cell viability is measured using CellTiter-Glo luminescent cell viability reagent (Promega product code G7570). Viability (stated as percent of control) is defined as relative luminescence units RLU of each well divided by the RLU of cells in DMSO controls. IC50 values are determined from viability measurements by non-linear regression using a four-parameter model.

[3] = test system: A375 cells (melanoma, wt, B-Raf mutant); test: A375 CTG proliferation assay (120 h), negative control; assay type: cell-based; details: Homo sapiens, A-375, CellTiter-Glo, negative control cell line
Protocol: A375 cells (ATCC CRL-1619) are dispensed into 384-well plates, flat and clear bottom (Greiner, PNr. 781091) at a density of 300 cells per well in 60 μL DMEM (Sigma D6429)+10% Fetal Calf Serum (HyClone, PNr.: SH30084.03) and incubated at 37° C. in a CO2 incubator overnight. The next day, compounds (10 mM stock in DMSO) are added at logarithmic dose series using the HP Digital Dispenser D300 (Tecan), including DMSO controls. Plates are incubated for 120 h, and cell viability is measured using CellTiter-Glo luminescent cell viability reagent (Promega product code G7570). Viability (stated as percent of control) is defined as relative luminescence units RLU of each well divided by the RLU of cells in DMSO controls. IC50 values are determined from viability measurements by non-linear regression using a four-parameter model.

[4] = test system: MKN1 cells (gastric cancer, wt amplified); test: MKN1 CTG proliferation assay (120 h), assay 2; assay type: cell-based; details: Homo sapiens, MKN-1, CellTiter-Glo, 200 cells per well
Protocol: as §1

KRAS (G13D)::SOS1 = target: T2, KRAS (G13D)::SOS1 (Homo sapiens, UniProt P01116, C118S/G13D); test: KRAS::SOS1 AlphaScreen binding assay, KRAS G13D
T2 construct: KRAS (G13D) 1-169, N-terminal 6His-tag for purification, cleaved off; 6His-tag (N, cleaved yes); TEV cleavage site
T2 sequence (P01116 1-169 isoform P01116-2 G13D/C118S): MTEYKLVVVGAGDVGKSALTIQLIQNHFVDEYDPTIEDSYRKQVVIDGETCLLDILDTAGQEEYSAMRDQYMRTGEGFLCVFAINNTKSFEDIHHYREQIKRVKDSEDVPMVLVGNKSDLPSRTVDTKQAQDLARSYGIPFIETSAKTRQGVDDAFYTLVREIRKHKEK
Protocol: Low IC50 values in this assay setting are indicative of strong inhibition of protein-protein interaction between SOS1 and KRAS:
These assays measure the inhibitory effect of compounds on KRAS mutant protein-protein interactions using the Alpha Screen technology by Perkin Elmer.
For the chosen highest assay concentration of 100 μM, 150 nL of compound solution are transferred from a 10 mM DMSO compound stock solution. A series of eleven fivefold dilutions per compound are transferred to the assay plate, compound dilutions are tested in duplicates. DMSO are added as backfill to a total volume of 150 nL.
The assays run on a fully automated robotic system in a darkened room below 100 Lux. To 150 nl of compound dilution 10 μl of a mix including KRAS mutant protein, SOS1 (final assay concentrations see above) and GDP nucleotide (Sigma G7127; final assay concentration 10 μM) in assay buffer (1×PBS, 0.1% BSA, 0.05% Tween 20) are added into columns 1-24. […]
Plates are kept at room temperature in a darkened incubator. After an additional 60 minutes incubation time the signal is measured in a PerkinElmer Envision HTS Multilabel Reader using the AlphaScreen specs from PerkinElmer.
IC50 values are calculated and analyzed with Boehringer Ingelheim's MEGALAB IC50 application using a 4 parametric logistic model.

Structure (SMILES)	MBI 3A4 (CYP3A4) [%]	IC50 (KRAS (G13D)::SOS1) [nM]	IC50 [4] [nM]	also measured
C[C@H](Oc1ccnc(-c2noc3c2CCC[C@@]32CCCc3sc(N)c(C#N)c32)n1)[C@@H]1CCCN1C [IIb-3]	69	–	–	–
C[C@H]1CNCCN1c1nccc(-c2noc3c2CCC[C@@]32CCCc3sc(N)c(C#N)c32)n1 [IIf-1]	–	–	2350	IC50 [1]: 831 nM; IC50 [2]: 290 nM; IC50 [3]: > 3000 nM
C[C@H](Oc1nccc(-c2onc3c2CCC[C@@]32CCCc3sc(N)c(C#N)c32)n1)[C@@H]1C[C@@H](F)CN1C [Ie-2]	–	–	3460	–

More lines, main results first:

MBI 3A4 (CYP3A4) [%]	IC50 (KRAS (G13D)::SOS1) [nM]	Structure (SMILES)	IC50 [4] [nM]	also measured
65	–	C[C@H]1CNCCCN1c1nccc(-c2noc3c2CCC[C@@]32CCCc3sc(N)c(C#N)c32)n1 (single isomer, unassigned) [IIb-5]	–	–
–	89	C[C@H]1[C@@H]2CCCN2CCCN1c1nccc(-c2onc3c2CCC[C@@]32CCCc3sc(N)c(C#N)c32)n1 [Id-1]	–	–
60	932	C[C@H]1CNCCCN1c1nccc(-c2onc3c2CCC[C@@]32CCCc3sc(N)c(C#N)c32)n1 [If-1]	–	–
